In ChEMBL document CHEMBL4507276 (2021):

Legend:
[1] = target: Atypical kinase COQ8B, mitochondrial (Homo sapiens) (UniProt Q96D53); details: Compound concentration 1000.0 nM
[2] = target: Beta-1 adrenergic receptor (Homo sapiens) (UniProt P08588); details: Compound concentration 10.0 uM
[3] = target: Glycine receptor subunit alpha-1 (Rattus norvegicus) (UniProt P07727); assay: GLYSTRYANTAG Cerep selectivity data (BI); details: filed as antagonist, Compound concentration 20.0 uM
[4] = target: Melanocortin receptor 4 (Homo sapiens) (UniProt P32245); assay: MC4/HU Cerep selectivity data (BI); details: Compound concentration 20.0 uM
[5] = target: Epidermal growth factor receptor (Homo sapiens) (UniProt P00533); assay: EGF/HU Eurofins-Panlabs selectivity data (BI); details: Compound concentration 10.0 uM
[6] = target: T1, Ephrin type-B receptor 4 (Homo sapiens) (UniProt P54760); assay: EPHB4 Invitrogen selectivity data (BI); details: Compound concentration 3.0 uM
T1 sequence (whole entry): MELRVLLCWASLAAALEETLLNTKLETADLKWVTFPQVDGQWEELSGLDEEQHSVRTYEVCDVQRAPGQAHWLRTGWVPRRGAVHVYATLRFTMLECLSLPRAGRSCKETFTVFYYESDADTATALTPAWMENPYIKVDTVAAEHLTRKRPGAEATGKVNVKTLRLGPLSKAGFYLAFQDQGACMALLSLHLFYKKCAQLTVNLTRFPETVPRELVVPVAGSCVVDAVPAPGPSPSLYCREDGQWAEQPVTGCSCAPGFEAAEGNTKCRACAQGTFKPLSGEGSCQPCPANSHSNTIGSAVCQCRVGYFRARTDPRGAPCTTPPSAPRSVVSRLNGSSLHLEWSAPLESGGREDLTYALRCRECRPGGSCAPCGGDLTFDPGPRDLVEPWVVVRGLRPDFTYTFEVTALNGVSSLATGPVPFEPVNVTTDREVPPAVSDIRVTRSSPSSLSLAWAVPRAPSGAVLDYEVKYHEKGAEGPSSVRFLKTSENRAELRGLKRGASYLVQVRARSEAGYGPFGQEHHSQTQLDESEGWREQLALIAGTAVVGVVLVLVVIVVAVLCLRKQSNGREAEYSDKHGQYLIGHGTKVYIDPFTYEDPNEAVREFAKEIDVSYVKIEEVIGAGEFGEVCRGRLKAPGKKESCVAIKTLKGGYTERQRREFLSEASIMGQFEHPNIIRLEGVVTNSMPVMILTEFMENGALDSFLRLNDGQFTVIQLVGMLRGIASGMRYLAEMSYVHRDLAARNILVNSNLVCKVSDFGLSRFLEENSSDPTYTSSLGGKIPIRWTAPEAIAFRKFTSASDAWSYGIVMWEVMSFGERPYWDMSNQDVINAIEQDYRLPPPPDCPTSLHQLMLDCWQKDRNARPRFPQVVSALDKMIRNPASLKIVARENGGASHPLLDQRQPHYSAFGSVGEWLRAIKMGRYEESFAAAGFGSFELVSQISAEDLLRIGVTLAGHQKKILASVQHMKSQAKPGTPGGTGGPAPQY

[7] = target: T2, Cytoplasmic tyrosine-protein kinase BMX (Homo sapiens) (UniProt P51813); assay: BMX Invitrogen selectivity data (BI); details: Compound concentration 3.0 uM
T2 sequence (whole entry): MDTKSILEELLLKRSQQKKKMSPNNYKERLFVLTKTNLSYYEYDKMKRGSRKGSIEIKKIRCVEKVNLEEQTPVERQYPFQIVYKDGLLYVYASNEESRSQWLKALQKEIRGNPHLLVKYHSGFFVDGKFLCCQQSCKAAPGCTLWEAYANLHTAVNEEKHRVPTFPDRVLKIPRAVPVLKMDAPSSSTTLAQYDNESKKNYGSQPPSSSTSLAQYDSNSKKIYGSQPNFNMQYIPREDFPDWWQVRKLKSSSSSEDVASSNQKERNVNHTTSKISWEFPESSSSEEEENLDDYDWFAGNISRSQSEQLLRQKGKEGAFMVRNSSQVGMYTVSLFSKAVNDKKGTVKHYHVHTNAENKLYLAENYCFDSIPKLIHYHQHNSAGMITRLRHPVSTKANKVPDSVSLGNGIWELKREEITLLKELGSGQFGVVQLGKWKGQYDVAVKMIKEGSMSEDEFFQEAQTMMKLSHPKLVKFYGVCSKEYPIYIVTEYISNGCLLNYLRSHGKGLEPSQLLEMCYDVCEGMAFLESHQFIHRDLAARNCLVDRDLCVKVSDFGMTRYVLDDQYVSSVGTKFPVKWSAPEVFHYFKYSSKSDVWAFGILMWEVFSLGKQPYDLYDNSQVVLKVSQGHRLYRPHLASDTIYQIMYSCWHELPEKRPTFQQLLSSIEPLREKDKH

[8] = target: Beta-2 adrenergic receptor (Homo sapiens) (UniProt P07550); assay: BETA2/HUM Cerep selectivity data (BI); details: filed as antagonist, Compound concentration 20.0 uM
[9] = target: T3, Muscarinic acetylcholine receptor M2 (Homo sapiens) (UniProt P08172); assay: M2/HU Eurofins-Panlabs selectivity data (BI); details: Compound concentration 10.0 uM
T3 sequence (whole entry): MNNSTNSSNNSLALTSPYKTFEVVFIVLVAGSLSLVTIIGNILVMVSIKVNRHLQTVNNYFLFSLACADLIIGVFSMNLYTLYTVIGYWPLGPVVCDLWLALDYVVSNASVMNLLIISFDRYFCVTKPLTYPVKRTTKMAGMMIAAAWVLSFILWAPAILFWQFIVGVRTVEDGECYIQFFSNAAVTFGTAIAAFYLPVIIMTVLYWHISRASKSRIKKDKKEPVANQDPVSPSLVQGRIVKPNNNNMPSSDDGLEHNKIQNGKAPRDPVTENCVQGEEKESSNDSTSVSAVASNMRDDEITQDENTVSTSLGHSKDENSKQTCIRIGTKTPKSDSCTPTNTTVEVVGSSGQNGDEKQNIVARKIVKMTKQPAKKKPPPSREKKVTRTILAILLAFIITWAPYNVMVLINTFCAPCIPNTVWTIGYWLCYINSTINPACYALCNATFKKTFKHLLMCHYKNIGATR

[10] = target: Beta-1 adrenergic receptor (Homo sapiens) (UniProt P08588); assay: BETA1/HU Eurofins-Panlabs selectivity data (BI); details: Compound concentration 10.0 uM

Chain of Beta-1 adrenergic receptor (Homo sapiens) (P08588 whole entry, looked up): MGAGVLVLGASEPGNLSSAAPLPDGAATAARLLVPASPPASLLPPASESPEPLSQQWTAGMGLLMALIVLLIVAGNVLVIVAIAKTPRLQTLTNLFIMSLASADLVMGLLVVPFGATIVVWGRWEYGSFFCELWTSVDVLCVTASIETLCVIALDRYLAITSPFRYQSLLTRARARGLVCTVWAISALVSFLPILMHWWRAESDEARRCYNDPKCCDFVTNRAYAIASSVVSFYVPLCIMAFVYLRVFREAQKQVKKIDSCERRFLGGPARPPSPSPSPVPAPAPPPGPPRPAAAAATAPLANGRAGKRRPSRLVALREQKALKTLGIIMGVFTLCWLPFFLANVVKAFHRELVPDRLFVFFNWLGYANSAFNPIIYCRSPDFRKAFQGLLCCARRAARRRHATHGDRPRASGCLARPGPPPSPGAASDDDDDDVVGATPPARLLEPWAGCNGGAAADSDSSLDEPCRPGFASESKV
Chain of Epidermal growth factor receptor (Homo sapiens) (P00533 whole entry): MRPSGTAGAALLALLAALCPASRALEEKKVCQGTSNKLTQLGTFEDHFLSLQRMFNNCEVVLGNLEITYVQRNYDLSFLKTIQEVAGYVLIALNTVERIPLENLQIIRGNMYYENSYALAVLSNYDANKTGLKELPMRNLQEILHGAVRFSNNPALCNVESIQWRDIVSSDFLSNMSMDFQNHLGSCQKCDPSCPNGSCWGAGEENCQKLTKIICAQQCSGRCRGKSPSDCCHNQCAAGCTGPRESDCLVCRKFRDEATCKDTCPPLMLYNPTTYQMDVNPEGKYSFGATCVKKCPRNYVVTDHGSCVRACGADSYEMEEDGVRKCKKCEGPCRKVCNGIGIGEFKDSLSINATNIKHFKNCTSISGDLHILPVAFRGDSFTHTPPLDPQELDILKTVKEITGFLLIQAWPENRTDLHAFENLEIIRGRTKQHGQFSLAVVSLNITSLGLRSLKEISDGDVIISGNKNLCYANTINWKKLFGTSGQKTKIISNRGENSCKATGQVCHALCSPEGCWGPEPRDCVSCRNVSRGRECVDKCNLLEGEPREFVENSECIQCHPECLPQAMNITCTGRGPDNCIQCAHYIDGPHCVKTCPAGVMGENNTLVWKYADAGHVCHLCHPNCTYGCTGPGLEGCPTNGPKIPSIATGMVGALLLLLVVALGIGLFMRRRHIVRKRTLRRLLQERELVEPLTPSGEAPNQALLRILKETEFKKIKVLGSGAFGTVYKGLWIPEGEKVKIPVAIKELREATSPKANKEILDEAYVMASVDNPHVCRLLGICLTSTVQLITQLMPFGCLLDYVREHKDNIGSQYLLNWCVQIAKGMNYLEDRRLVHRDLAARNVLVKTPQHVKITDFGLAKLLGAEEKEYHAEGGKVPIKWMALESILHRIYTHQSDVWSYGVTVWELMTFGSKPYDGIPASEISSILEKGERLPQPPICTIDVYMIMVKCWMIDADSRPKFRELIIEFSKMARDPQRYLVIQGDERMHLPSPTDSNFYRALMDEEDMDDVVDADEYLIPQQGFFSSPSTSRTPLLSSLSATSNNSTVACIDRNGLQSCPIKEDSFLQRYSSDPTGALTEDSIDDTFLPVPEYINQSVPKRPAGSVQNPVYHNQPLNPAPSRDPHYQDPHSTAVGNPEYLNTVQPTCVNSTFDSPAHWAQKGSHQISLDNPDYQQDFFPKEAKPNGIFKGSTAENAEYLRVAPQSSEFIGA
Chain of Melanocortin receptor 4 (Homo sapiens) (P32245 whole entry): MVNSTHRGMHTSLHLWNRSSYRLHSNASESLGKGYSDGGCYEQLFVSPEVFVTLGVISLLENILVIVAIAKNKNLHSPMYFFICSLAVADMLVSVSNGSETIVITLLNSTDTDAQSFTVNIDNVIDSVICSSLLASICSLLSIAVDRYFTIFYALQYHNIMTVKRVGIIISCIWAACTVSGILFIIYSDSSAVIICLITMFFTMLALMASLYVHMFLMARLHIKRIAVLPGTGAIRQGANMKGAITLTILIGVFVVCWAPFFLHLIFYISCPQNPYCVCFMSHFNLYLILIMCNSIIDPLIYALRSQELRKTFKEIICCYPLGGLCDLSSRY
Chain of Beta-2 adrenergic receptor (Homo sapiens) (P07550 whole entry, looked up): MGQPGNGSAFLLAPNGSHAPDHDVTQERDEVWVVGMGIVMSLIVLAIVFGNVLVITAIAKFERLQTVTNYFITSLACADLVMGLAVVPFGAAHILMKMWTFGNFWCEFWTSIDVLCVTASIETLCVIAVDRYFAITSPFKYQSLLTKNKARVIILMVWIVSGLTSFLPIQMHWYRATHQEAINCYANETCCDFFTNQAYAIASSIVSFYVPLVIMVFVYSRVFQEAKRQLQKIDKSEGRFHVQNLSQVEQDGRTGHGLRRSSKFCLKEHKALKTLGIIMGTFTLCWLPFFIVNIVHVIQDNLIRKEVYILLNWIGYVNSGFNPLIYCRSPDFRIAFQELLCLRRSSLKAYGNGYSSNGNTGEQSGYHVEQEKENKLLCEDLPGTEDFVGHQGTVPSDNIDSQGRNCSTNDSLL
Chain of Atypical kinase COQ8B, mitochondrial (Homo sapiens) (Q96D53 whole entry): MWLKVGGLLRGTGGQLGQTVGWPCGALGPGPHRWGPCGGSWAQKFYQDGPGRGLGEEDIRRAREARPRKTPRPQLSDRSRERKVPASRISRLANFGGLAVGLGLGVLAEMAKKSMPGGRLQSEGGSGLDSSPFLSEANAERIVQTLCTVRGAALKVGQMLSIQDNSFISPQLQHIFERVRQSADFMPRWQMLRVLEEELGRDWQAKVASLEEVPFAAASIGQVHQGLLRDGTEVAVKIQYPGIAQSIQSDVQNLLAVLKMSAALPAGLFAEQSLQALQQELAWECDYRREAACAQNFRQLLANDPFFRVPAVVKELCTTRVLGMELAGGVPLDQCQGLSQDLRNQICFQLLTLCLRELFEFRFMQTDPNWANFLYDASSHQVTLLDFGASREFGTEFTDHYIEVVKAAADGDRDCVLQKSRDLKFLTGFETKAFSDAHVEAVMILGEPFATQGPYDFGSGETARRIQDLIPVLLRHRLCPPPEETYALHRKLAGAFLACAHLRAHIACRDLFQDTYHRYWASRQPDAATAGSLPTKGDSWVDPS
Chain of Glycine receptor subunit alpha-1 (Rattus norvegicus) (P07727 whole entry): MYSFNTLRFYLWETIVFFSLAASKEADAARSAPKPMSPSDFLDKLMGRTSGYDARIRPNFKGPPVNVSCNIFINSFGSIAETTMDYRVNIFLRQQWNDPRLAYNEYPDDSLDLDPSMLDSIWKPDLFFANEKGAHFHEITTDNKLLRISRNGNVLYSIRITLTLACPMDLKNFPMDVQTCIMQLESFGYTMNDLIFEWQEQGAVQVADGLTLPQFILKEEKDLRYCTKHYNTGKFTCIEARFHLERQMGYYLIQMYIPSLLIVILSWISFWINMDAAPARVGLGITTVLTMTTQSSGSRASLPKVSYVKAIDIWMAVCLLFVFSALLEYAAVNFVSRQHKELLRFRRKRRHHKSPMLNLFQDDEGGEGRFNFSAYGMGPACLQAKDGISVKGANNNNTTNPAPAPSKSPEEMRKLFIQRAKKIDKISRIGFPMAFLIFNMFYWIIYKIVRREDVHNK

CN(C)C(=O)Cn1cc(-c2nc(C3(c4ccc(-c5cnc(N)nc5)cc4)CC3)no2)cn1 [BI 0153]
inactive: residual activity [1] 100% | inhibition [2] 7.58%

CN(C)C(=O)Cn1cc(-c2nc([C@@](C)(c3ccc(-c4cnc(N)nc4)cc3)C3CC3)no2)cn1 [BI 665915]
inactive: residual activity [3] 118% | residual activity [4] 109% | residual activity [5] 103% | residual activity [6] 101% | residual activity [7] 95% | residual activity [8] 98% | residual activity [9] 98% | residual activity [10] 103%
